By inhibition is commonly meant how much of the control response was suppressed.

SMILES strings stand for the structures. The source made the active and inactive calls. The calls are words filed in the database; no cut-off is given here. A value given as a limit tells only on which side of the number the result lay.

In experiment [1] the test system is RAW264.7. Briefly: Inhibition of IFN-gamma-induced nitric oxide production in mouse RAW264.7 cells at 30 nM after 24 hrs by Griess method. The experiment is classed as functional, cell-based. A general note: Nitrite, measured by Griess reagent, commonly stands in for NO production.
Experiment [2] relates to RAW264.7. Briefly: Antioxidant activity in mouse RAW264.7 cells assessed as inhibition of tBHP-induced ROS production at 100 nM pretreated for 18 hrs before challenge measured after 15 mins by H2DCFA-based flow cytometry. The experiment is classed as functional, cell-based.
Experiment [3] deals with T1, Nuclear factor erythroid 2-related factor 2 (Mus musculus) (UniProt Q60795).
T1 sequence (whole entry): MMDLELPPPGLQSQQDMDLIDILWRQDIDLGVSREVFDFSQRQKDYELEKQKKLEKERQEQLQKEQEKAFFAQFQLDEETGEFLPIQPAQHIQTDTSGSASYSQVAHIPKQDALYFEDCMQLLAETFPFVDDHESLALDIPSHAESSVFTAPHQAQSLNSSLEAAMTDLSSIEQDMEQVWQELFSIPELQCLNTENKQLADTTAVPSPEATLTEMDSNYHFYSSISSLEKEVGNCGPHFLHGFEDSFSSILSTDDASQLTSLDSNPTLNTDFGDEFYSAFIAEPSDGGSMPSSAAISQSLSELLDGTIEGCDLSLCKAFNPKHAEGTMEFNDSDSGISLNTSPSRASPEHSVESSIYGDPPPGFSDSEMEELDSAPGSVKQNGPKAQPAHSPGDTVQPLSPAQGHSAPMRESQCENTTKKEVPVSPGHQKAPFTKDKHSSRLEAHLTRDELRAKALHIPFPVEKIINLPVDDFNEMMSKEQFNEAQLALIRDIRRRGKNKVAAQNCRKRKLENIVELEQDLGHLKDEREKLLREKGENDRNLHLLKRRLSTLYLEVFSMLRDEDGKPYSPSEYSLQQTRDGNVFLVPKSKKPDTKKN
Briefly: Induction of Nrf2-mediated HO-1 expression in mouse RAW264.7 cells at 30 to 300 nM after 6 hrs by Western blot method. The experiment is classed as cell-based. (Immunoblotting shows a protein as a band on a membrane.)

The nature of experiment [4]: Antiproliferative activity against mouse PANC1343 cells assessed as viable cells at 1uM after 72 hrs by MTT assay. Format: functional. The following applies: PANC-1, 72 h, read-out: Activity. In general terms: Tetrazolium dyes change colour on reduction, which living cells bring about.
The test system of experiment [5] is RAW264.7. Briefly: Antioxidant activity in mouse RAW264.7 cells assessed as inhibition of tBHP-induced ROS production at 10 nM pretreated for 18 hrs before challenge measured after 15 mins by H2DCFA-based flow cytometry. Format: functional.

For the molecule `COC(=O)CC(NC(=O)[C@]12CCC(C)(C)C[C@H]1[C@H]1C(=O)C=C3[C@@]4(C)C=C(C#N)C(=O)C(C)(C)[C@@H]4CC[C@@]3(C)[C@]1(C)CC2)C(=O)OC` (some centres undefined), the inhibition result in the experiment with RAW264.7 [1] was “inactive”.

As for `COC(=O)C1CCCN1C(=O)[C@]12CCC(C)(C)C[C@H]1[C@H]1C(=O)C=C3[C@@]4(C)C=C(C#N)C(=O)C(C)(C)[C@@H]4CC[C@@]3(C)[C@]1(C)CC2` (some centres undefined), the inhibition result in the experiment on RAW264.7 [1] was “inactive”.

For `COC(=O)[C@]12CCC(C)(C)C[C@H]1[C@H]1C(=O)C=C3[C@@]4(C)C=C(C#N)C(=O)C(C)(C)[C@@H]4CC[C@@]3(C)[C@]1(C)CC2`, in the experiment with RAW264.7 [2], the inhibition result is “Active”.

In the case of `COC(=O)C(Cc1cnc[nH]1)NC(=O)[C@]12CCC(C)(C)C[C@H]1[C@H]1C(=O)C=C3[C@@]4(C)C=C(C#N)C(=O)C(C)(C)[C@@H]4CC[C@@]3(C)[C@]1(C)CC2` (some centres undefined), the inhibition result in the experiment on RAW264.7 [1] is “inactive”.

Take `CCNC(=O)[C@]12CCC(C)(C)C[C@H]1[C@H]1C(=O)C=C3[C@@]4(C)C=C(C#N)C(=O)C(C)(C)[C@@H]4CC[C@@]3(C)[C@]1(C)CC2`: in the experiment with RAW264.7 [1], the inhibition entry is “Active”. For the same molecule, the HO-1 expression induction result in experiment [3] is “Active”.

Consider `COC(=O)C(NC(=O)[C@]12CCC(C)(C)C[C@H]1[C@H]1C(=O)C=C3[C@@]4(C)C=C(C#N)C(=O)C(C)(C)[C@@H]4CC[C@@]3(C)[C@]1(C)CC2)C(C)C` (some centres undefined), for which the viability at 1 µM in experiment [4] was under 10%. The inhibition result with RAW264.7 [1] and in the experiment with RAW264.7 [2] was “Active” throughout. The inhibition at 0.01 µM in the experiment on RAW264.7 [5] is 50%. In addition, the HO-1 expression induction result in experiment [3] is “Active”.

For the molecule `COC(=O)C(C)NC(=O)[C@]12CCC(C)(C)C[C@H]1[C@H]1C(=O)C=C3[C@@]4(C)C=C(C#N)C(=O)C(C)(C)[C@@H]4CC[C@@]3(C)[C@]1(C)CC2` (some centres undefined), in experiment [4], the viability at 1 µM is under 10%. In the experiment on RAW264.7 [1], the inhibition entry was “Active”. For the same molecule, the inhibition at 0.01 µM in the experiment on RAW264.7 [5] came out at 50%. The HO-1 expression induction result in experiment [3] was “Active”.

`COC(=O)C(Cc1c[nH]c2ccccc12)NC(=O)[C@]12CCC(C)(C)C[C@H]1[C@H]1C(=O)C=C3[C@@]4(C)C=C(C#N)C(=O)C(C)(C)[C@@H]4CC[C@@]3(C)[C@]1(C)CC2` (some centres undefined): the inhibition entry in the experiment on RAW264.7 [1] was “inactive”.

As to `COC(=O)C(CO)NC(=O)[C@]12CCC(C)(C)C[C@H]1[C@H]1C(=O)C=C3[C@@]4(C)C=C(C#N)C(=O)C(C)(C)[C@@H]4CC[C@@]3(C)[C@]1(C)CC2` (some centres undefined), the viability at 1 µM in experiment [4] is under 10%. For the same molecule, the inhibition result in the experiment with RAW264.7 [1] and with RAW264.7 [2] was “Active” in each case. Also, the inhibition at 0.01 µM in the experiment on RAW264.7 [5] came out at 50%. The HO-1 expression induction result in experiment [3] was “Active”.

Consider `COC(=O)C(CC(C)C)NC(=O)[C@]12CCC(C)(C)C[C@H]1[C@H]1C(=O)C=C3[C@@]4(C)C=C(C#N)C(=O)C(C)(C)[C@@H]4CC[C@@]3(C)[C@]1(C)CC2` (some centres undefined), for which the inhibition result with RAW264.7 [1] was “inactive”.

As to `COC(=O)C(Cc1ccc(O)cc1)NC(=O)[C@]12CCC(C)(C)C[C@H]1[C@H]1C(=O)C=C3[C@@]4(C)C=C(C#N)C(=O)C(C)(C)[C@@H]4CC[C@@]3(C)[C@]1(C)CC2` (some centres undefined), in the experiment with RAW264.7 [1], the inhibition entry is “inactive”.

Turning to `COC(=O)C(Cc1ccccc1)NC(=O)[C@]12CCC(C)(C)C[C@H]1[C@H]1C(=O)C=C3[C@@]4(C)C=C(C#N)C(=O)C(C)(C)[C@@H]4CC[C@@]3(C)[C@]1(C)CC2` (some centres undefined), the inhibition result with RAW264.7 [1] was “inactive”.
